Reference: US20120058956A1, “PEPTIDES DERIVED FROM FICOLIN AS SURFACTANTS” (METAMOREFIX LTD., priority 2009, published 2012)

Experiment: transport of hyaluronic acid through pig skin (Franz cell)
Protocol: Skin samples (stored at −80° C.) were thawed at 4° C. for approximately 15 hr followed by 1 hr at room temperature prior to use. A thawed pig dermatomed skin sample was mounted horizontally on a Franz cell, dermis side down. […] The receptor phase consisted of PBS pH 7.4 with continuous stirring.
A test formulation, formulated as a suspension was applied to the skin and uniformly dispersed over the skin surface at a surface density of at least 1.0 g/cm^2 to insure pseudo-infinite dose conditions. The formulations consisted of a peptide surfactant of the invention together with hyaluronic acid. The formulations used were as described in the following table: […]
The dose chamber was sealed with an occlusive film to prevent loss of any volatile component of the test formulation. […] Each aliquot was replaced with an equal volume of PBS.
The samples were analyzed for the presence of hyaluronic acid by the Carbazole method as is known in the art.

Molecule | HA traversed the skin (control, surfactant omitted, 5 mg/ml HA, period of 6 hours, Franz cell, receptor PBS pH 7.4, curve 1 in FIG. 1) | HA traversed the skin (pH 7.4)
hyaluronic acid [HA] | about 40 ?g/cm^2 | –
CCCCCCCCCCCC(=O)N(C)CC(=O)[O-].[Na+] [NLS, N Lauroyl Sarcosine Sodium salt] | – | about 65 ?g/cm^2
